# Source: patent US9877980B2, “Method and composition for treatment or prevention of type 2 diabetes and hyperlipidemia” (Chun-Ching Shih, priority 2016, dated 2018)
# Marks after values point to notes of the source that are not given here.
# Legend:
# Format in all cases: in vivo
# [1] = tested on: C57BL/6J mice on high-fat diet (HFD); experiment: Absolute tissue weight, body weight, weight gain and food intake in HFD mice; conditions: 4 weeks
# Method: (§1) The following experiment was performed and approved by the guidelines of the Institutional Animal Care and Use Committee of Central Taiwan University of Science and Technology. The 4-week old male C57BL/6J mice (total amount n=63) were purchased from the National Laboratory Animal Breeding and Research Center (Taipei, Taiwan). After acclimatization for one week, all of the mice were divided randomly into the control (CON) group and the high-fat diet (HFD) group. For the following 12 weeks, the CON group (n=9) was kept on a low-fat diet (Diet 12450B, Research Diets, Inc., New Brunswick, N.J., USA), while the HFD group (n=54) was exposed to a high-fat diet (Diet 12451, Research Diets, New Brunswick, N.J., USA). The low-fat diet was composed of protein 20%, carbohydrate 70% and fat 10%, whereas the high-fat diet was composed of protein 20%, carbohydrate 35%, and fat 45% (of total energy, % kcal). After HFD exposure for 8 weeks, the HFD group was further randomly subdivided into 6 groups (n=9 per group) to receive different treatments by oral gavage once daily for four weeks and on HFD. […] The HF+B1, HF+B2, and […] are collectively termed BB-treated HFD groups in the following examples. The CON mice were administered vehicle. After dosing for 4 weeks, the mice were given no food at night and sacrificed after 12 h of fasting on the next day. All of the individual tissues were collected and weighed, and portions were instantly frozen using liquid nitrogen and kept at −80° C. for subsequent target gene analysis. Blood samples (0.8 mL) were collected for analysis of blood parameters.
# Body weight of each mouse was monitored and measured daily at the same time throughout the experimentation. The difference in body weight between two consecutive days is defined as body weight gain. The food pellets for mice were weighed and put into the food container. Unconsumed pellets of high-fat diet were discarded each day and fresh pellets of high-fat diet were provided to ensure food quality throughout the experimentation. The high-fat food pellets were stored at 4° C.
# [2] = tested on: C57BL/6J mice on high-fat diet (HFD); experiment: Blood parameters (glucose, insulin, TG, FFA, TC, leptin, adiponectin) in HFD mice; conditions: 4 weeks
# Method: as §1, with “For the following 12 weeks, the CON group (n=9) was kept on a low-fat diet (Diet 12450B, Research Diets, Inc., New Brunswick, N.J., USA), while the HFD group (n=54) was exposed to a high-fat diet (Diet 12451, Research Diets, New Brunswick, N.J., USA). The low-fat diet was composed of protein 20%, carbohydrate 70% and fat 10%, whereas the high-fat diet was composed of protein 20%, carbohydrate 35%, and fat 45% (of total energy, % kcal).” left out
# A portion of the blood samples obtained from the retro-orbital sinus of fasted mice were immediately used to measure blood glucose levels using Sidekick glucose analyzer (YSI 1500, YSI Incorporated, Yellow Springs, USA) according to the glucose oxidase method. Heparin (30 units/mL, Sigma) was added into other portions of the blood samples. […] Concentrations of plasma triglycerides (TG), total cholesterol (TC), and free fatty acids (FFA) were determined using commercial assay kits according to the manufacturer's instructions (Triglycerides-E test, Cholesterol-E test, and FFA-C test, Wako Pure Chemical, Osaka, Japan). Plasma insulin, leptin, and adiponectin levels were assessed using commercial assay kits according to the manufacturer's instructions (mouse insulin ELISA kit, Mercodia, Uppsala, Sweden; mouse leptin ELISA kit, Morinaga, Yokohama, Japan; Mouse Adiponectin ELISA kit, Crystal Chem International, Downers Grove, Ill., USA).
# [3] = tested on: C57BL/6J mice on high-fat diet (HFD); experiment: Hepatic lipids in HFD mice; conditions: 4 weeks
# Method: as §1
# For hepatic lipid extraction, a 0.375 g liver samples were homogenized with 1 mL distill water for 5 minutes. The dried pellet was finally resuspended in 0.5 mL ethanol and analyzed using a triglycerides kit as used for analyzing the serum lipids set forth above.
# [4] = tested on: epididymal adipocyte of HFD mice; experiment: Histology of epididymal white adipose tissue (adipocyte hypertrophy); conditions: 4 weeks, three measurements
# Method: as §1
# (§2) Small pieces of epididymal white adipose tissue and liver tissue were fixed with formalin (200 g/kg) neutral buffered solution and embedded in paraffin. Sections of 8 μm […] were cut and stained with hematoxylin and eosin. For microscopic examination, a microscope (Leica, DM2500) was used, and the images were taken using a Leica Digital Camera (DFC-425-C).
# Adipocyte hypertrophy, the pathological enlargement of adipocytes, is often found in subjects with type 2 diabetes and hyperlipidemia. To verify the therapeutic effect of the compound of formula I on adipocyte hypertrophy, morphology of the EWAT for the CON group and the BB-treated HFD groups was examined. Micrographs of the EWAT sections for each group were analyzed to determine the mean area of an epididymal adipocyte using the software ImageJ.
# [5] = tested on: hepatocytes of HFD mice; experiment: Histology of liver tissue (hepatocellular ballooning); conditions: 4 weeks, grade 0 absence, 1 a few cells
# Method: as §1, §2
# Based on previous report, the designation of histological hepatocellular ballooning findings include grade 0 for absence of degeneration, grade 1 for degeneration in a few cells, and […] for degeneration in many cells.
structure (smiles),measurement,setting,value
"CC(C)OC(=O)C(C)(C)Oc1ccc(C(=O)c2ccc(Cl)cc2)cc1 [Feno, fenofibrate, reference compound]",Absolute tissue weight BAT,[1]; 250 mg/kg/day oral gavage,0.139 ± 0.011 g
same,Absolute tissue weight EWAT,[1]; 250 mg/kg/day oral gavage,0.763 ± 0.116^f g
same,Absolute tissue weight Liver,[1]; 250 mg/kg/day oral gavage,1.669 ± 0.033^f g
same,Absolute tissue weight MWAT,[1]; 250 mg/kg/day oral gavage,0.264 ± 0.056 g
same,Absolute tissue weight RWAT,[1]; 250 mg/kg/day oral gavage,0.173 ± 0.032^f g
same,Absolute tissue weight Skeletal muscle,[1]; 250 mg/kg/day oral gavage,0.990 ± 0.078 g
same,Absolute tissue weight Visceral fat,[1]; 250 mg/kg/day oral gavage,0.936 ± 0.147^f g
same,Body weight,[1]; 250 mg/kg/day oral gavage,26.92 ± 0.96 g
same,Weight gain,[1]; 250 mg/kg/day oral gavage,−0.58 ± 0.48^d g
same,Blood parameters Adiponectin,[2]; 250 mg/kg/day oral gavage,3.101 ± 0.028^f μg/mL
same,Blood parameters FFA,[2]; 250 mg/kg/day oral gavage,0.91 ± 0.08^f mEq/L
same,Blood parameters Leptin,[2]; 250 mg/kg/day oral gavage,1.206 ± 0.015^f ng/mL
same,Blood parameters TC,[2]; 250 mg/kg/day oral gavage,104.5 ± 5.5^f mg/dL
same,Liver lipids Total lipid,[3]; 250 mg/kg/day oral gavage,62.4 ± 3.9^f mg/g
same,Liver lipids Triacylglycerol,[3]; 250 mg/kg/day oral gavage,43.8 ± 5.6^f μmol/g
same,mean area of an epididymal adipocyte,[4]; 250 mg/kg/day oral gavage,6982.3±309.7 μm^2
same,hepatocellular ballooning mean score,[5]; 250 mg/kg/day oral gavage,0.6±0.1
"CN(CCOc1ccc(CC2SC(=O)NC2=O)cc1)c1ccccn1 (centres unmarked) [Rosi, rosiglitazone, reference compound]",Absolute tissue weight BAT,[1]; 10 mg/kg/day oral gavage,0.206 ± 0.012 g
same,Absolute tissue weight EWAT,[1]; 10 mg/kg/day oral gavage,0.919 ± 0.097^d g
same,Absolute tissue weight Liver,[1]; 10 mg/kg/day oral gavage,0.886 ± 0.031 g
same,Absolute tissue weight MWAT,[1]; 10 mg/kg/day oral gavage,0.302 ± 0.029 g
same,Absolute tissue weight RWAT,[1]; 10 mg/kg/day oral gavage,0.224 ± 0.032^f g
same,Absolute tissue weight Skeletal muscle,[1]; 10 mg/kg/day oral gavage,0.960 ± 0.078 g
same,Absolute tissue weight Visceral fat,[1]; 10 mg/kg/day oral gavage,1.143 ± 0.124^e g
same,Body weight,[1]; 10 mg/kg/day oral gavage,28.61 ± 1.51 g
same,Food intake,[1]; 10 mg/kg/day oral gavage,2.11 ± 0.06 g/day/mouse
same,Weight gain,[1]; 10 mg/kg/day oral gavage,0.38 ± 0.32 g
same,Blood parameters Adiponectin,[2]; 10 mg/kg/day oral gavage,3.058 ± 0.040^f μg/mL
same,Blood parameters FFA,[2]; 10 mg/kg/day oral gavage,1.08 ± 0.11^e mEq/L
same,Blood parameters Leptin,[2]; 10 mg/kg/day oral gavage,1.661 ± 0.013^f ng/mL
same,Blood parameters TC,[2]; 10 mg/kg/day oral gavage,111.5 ± 2.3^f mg/dL
same,Liver lipids Total lipid,[3]; 10 mg/kg/day oral gavage,70.1 ± 8.2^d mg/g
same,Liver lipids Triacylglycerol,[3]; 10 mg/kg/day oral gavage,52.1 ± 7.7^d μmol/g
same,mean area of an epididymal adipocyte,[4]; 10 mg/kg/day oral gavage,5886.4 ± 58.7 μm^2
same,hepatocellular ballooning mean score,[5]; 10 mg/kg/day oral gavage,0.8±0.2
